Source: patent US12286429B2, “5-oxo-1,2,3,5,8,8a-hexahydroindolizine-3-carboxamide derivatives useful as a factor XIa inhibitors” (Janssen Pharmaceutica NV, priority 2021, dated 2025)

What was measured:
[1] = biological target: Factor XIa (Homo sapiens, UniProt P03951); experiment: Factor XIa inhibition assay utilizing a fluorophore-quencher pair peptide substrate (FLINT); assay type: biochemical; settings: 11-point, 3-fold serial dilution, top 100 nM; 30 min preincubation; 15 μM 5Fam-KLTRAETV-K5Tamra substrate; kinetic reads over 30 min; read-out: FXIa Inhibition IC50
In short: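 FXIa ([…]) preincubated 30 min with compound (11-point, 3-fold, top 100 nM, 2% DMSO) in Tris pH 7.5, NaCl, CaCl2, BSA, CHAPS; 15 μM 5Fam-KLTRAETV-K5Tamra substrate then added. Fluorescence (485/520 nm) read kinetically over 30 min at room temperature; IC50 by 4-parameter fit.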

[2] = biological target: human plasma kallikrein (Homo sapiens, UniProt P03952); experiment: Kallikrein inhibition assay utilizing a quenched AMC peptide substrate (FLINT); assay type: biochemical; settings: 11-point, 3-fold serial dilution, top 1 μM; 30 min preincubation; 2 nM kallikrein; 50 μM Z-Gly-Pro-Arg-AMC; kinetic reads over 30 min
In short: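 Human plasma kallikrein (2 nM final) was pre-incubated 30 min at room temperature with compound (11-point 3-fold series, top 1 μM, 2% DMSO) in Tris pH 7.5, NaCl, CaCl2, BSA, CHAPS buffer. Reaction started with 50 μM Z-Gly-Pro-Arg-AMC (KM 40 μM), and fluorescence (340/440 nm) was read kinetically over 30 min. IC50 came from a 4-parameter logistic fit.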

Sequence of Factor XIa (P03951 388-625 limits assumed): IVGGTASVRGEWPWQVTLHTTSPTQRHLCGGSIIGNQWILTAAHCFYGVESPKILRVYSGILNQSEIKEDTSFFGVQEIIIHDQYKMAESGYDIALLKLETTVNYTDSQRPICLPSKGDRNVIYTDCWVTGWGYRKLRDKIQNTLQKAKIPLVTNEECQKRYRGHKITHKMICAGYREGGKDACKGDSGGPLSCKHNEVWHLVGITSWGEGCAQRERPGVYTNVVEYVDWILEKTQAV
Sequence of Factor XIa (P03951 19-387 partner limits assumed): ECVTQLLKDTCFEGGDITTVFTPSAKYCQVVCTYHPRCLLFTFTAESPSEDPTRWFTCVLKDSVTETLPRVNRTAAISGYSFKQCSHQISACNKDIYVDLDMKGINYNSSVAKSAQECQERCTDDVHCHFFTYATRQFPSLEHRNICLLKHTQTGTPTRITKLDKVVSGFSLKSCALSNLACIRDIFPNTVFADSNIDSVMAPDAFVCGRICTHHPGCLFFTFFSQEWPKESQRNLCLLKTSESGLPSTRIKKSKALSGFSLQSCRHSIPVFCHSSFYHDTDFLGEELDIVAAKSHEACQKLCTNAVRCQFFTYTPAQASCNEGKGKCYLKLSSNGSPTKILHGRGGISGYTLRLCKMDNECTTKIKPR
Sequence of human plasma kallikrein (P03952 391-638 limits assumed): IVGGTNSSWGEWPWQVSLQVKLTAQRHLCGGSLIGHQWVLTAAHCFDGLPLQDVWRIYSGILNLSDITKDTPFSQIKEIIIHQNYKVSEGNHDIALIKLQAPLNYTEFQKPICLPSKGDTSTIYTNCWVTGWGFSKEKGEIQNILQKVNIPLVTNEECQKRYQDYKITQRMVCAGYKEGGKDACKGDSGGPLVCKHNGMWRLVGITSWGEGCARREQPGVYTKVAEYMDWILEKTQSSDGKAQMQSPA
Sequence of human plasma kallikrein (P03952 20-390 partner limits assumed): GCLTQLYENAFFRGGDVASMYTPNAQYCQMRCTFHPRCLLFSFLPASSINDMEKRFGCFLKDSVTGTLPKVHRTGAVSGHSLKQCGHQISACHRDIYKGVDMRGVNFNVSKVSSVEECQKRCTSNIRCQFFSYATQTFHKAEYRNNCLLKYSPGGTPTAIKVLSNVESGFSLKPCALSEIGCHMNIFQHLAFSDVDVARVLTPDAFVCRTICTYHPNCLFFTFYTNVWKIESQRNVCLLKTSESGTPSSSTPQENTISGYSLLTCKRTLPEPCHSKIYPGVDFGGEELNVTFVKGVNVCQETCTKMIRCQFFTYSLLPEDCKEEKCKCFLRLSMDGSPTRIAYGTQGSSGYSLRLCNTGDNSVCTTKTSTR

Structure (SMILES) | IC50 [1] [nM] | IC50 [2] [nM]
Cn1nnnc1-c1ccc(NC(=O)[C@@H]2CCC3CC(c4c(-n5cnnn5)ccc(Cl)c4F)=CC(=O)N32)cc1 (mixture of isomers) [ID No. 70, (3S)-7-[3-Chloro-2-fluoro-6-(tetrazol-1-yl)phenyl]-N-[4-(1-methyltetrazol-5-yl)phenyl]-5-oxo-2,3,8,8a-tetrahydro-1H-indolizine-3-carboxamide] | 84.8 | 436
Cn1nncc1-c1ccc(NC(=O)[C@@H]2CCC3CC(c4c(-n5cnnn5)ccc(Cl)c4F)=CC(=O)N32)cc1 (mixture of isomers) [ID No. 71, (3S)-7-[3-Chloro-2-fluoro-6-(tetrazol-1-yl)phenyl]-N-[4-(3-methyltriazol-4-yl)phenyl]-5-oxo-2,3,8,8a-tetrahydro-1H-indolizine-3-carboxamide] | 46 | 156
O=C(Nc1ccc(-c2nnn[nH]2)cc1)[C@@H]1CCC2CC(c3c(-n4cnnn4)ccc(Cl)c3F)=CC(=O)N21 (mixture of isomers) [ID No. 72, (3S)-7-[3-Chloro-2-fluoro-6-(tetrazol-1-yl)phenyl]-5-oxo-N-[4-(1H-tetrazol-5-yl)phenyl]-2,3,8,8a-tetrahydro-1H-indolizine-3-carboxamide] | 0.7 | 20.4
O=C(Nc1ccc(-n2cnnn2)cc1)[C@@H]1CCC2CC(c3c(-n4cnnn4)ccc(Cl)c3F)=CC(=O)N21 (mixture of isomers) [ID No. 73, (3S)-7-[3-Chloro-2-fluoro-6-(tetrazol-1-yl)phenyl]-5-oxo-N-[4-(tetrazol-1-yl)phenyl]-2,3,8,8a-tetrahydro-1H-indolizine-3-carboxamide] | 26.3 | 156
O=C(Nc1ccc(-c2ncc[nH]2)cc1)[C@@H]1CCC2CC(c3c(-n4cnnn4)ccc(Cl)c3F)=CC(=O)N21 (mixture of isomers) [ID No. 74, (3S)-7-[3-Chloro-2-fluoro-6-(tetrazol-1-yl)phenyl]-N-[4-(1H-imidazol-2-yl)phenyl]-5-oxo-2,3,8,8a-tetrahydro-1H-indolizine-3-carboxamide] | 2 | 40.7
O=C(Nc1ccc(-c2n[nH]c(=O)o2)cc1)[C@@H]1CCC2CC(c3c(-n4cnnn4)ccc(Cl)c3F)=CC(=O)N21 (mixture of isomers) [ID No. 75, (3S)-7-[3-Chloro-2-fluoro-6-(tetrazol-1-yl)phenyl]-5-oxo-N-[4-(2-oxo-3H-1,3,4-oxadiazol-5-yl)phenyl]-2,3,8,8a-tetrahydro-1H-indolizine-3-carboxamide] | 1.8 | 11.2
O=C(Nc1ccc(-c2nc(=O)o[nH]2)cc1)[C@@H]1CCC2CC(c3c(-n4cnnn4)ccc(Cl)c3F)=CC(=O)N21 (mixture of isomers) [ID No. 76, (3S)-7-[3-Chloro-2-fluoro-6-(tetrazol-1-yl)phenyl]-5-oxo-N-[4-(5-oxo-2H-1,2,4-oxadiazol-3-yl)phenyl]-2,3,8,8a-tetrahydro-1H-indolizine-3-carboxamide] | 0.3 | 22.2
Cn1cnc(-c2ccc(NC(=O)[C@@H]3CCC4CC(c5c(-n6cnnn6)ccc(Cl)c5F)=CC(=O)N43)cc2)n1 (mixture of isomers) [ID No. 77, (3S)-7-[3-Chloro-2-fluoro-6-(tetrazol-1-yl)phenyl]-N-[4-(1-methyl-1,2,4-triazol-3-yl)phenyl]-5-oxo-2,3,8,8a-tetrahydro-1H-indolizine-3-carboxamide] | 8 | 63.5
CC1C[C@@H](C(=O)Nc2ccc3ncccc3c2)N2C(=O)C=C(c3c(-n4cnnn4)ccc(Cl)c3F)CC12 (mixture of isomers) [ID No. 82, (3S)-7-[3-Chloro-2-fluoro-6-(tetrazol-1-yl)phenyl]-1-methyl-5-oxo-N-(6-quinolyl)-2,3,8,8a-tetrahydro-1H-indolizine-3-carboxamide] | 7.9 | 8
CC1C[C@@H](C(=O)Nc2ccc3nn(C)cc3c2)N2C(=O)C=C(c3c(-n4cnnn4)ccc(Cl)c3F)CC12 (mixture of isomers) [ID No. 83, (3S)-7-[3-Chloro-2-fluoro-6-(tetrazol-1-yl)phenyl]-1-methyl-N-(2-methyl-2H-indazol-5-yl)-5-oxo-2,3,8,8a-tetrahydro-1H-indolizine-3-carboxamide] | 17.8 | 27
CC1C[C@@H](C(=O)Nc2ccc3n[nH]cc3c2)N2C(=O)C=C(c3c(-n4cnnn4)ccc(Cl)c3F)CC12 (mixture of isomers) [ID No. 84, (3S)-7-[3-Chloro-2-fluoro-6-(tetrazol-1-yl)phenyl]-N-(2H-indazol-5-yl)-1-methyl-5-oxo-2,3,8,8a-tetrahydro-1H-indolizine-3-carboxamide] | 19.3 | 27.8
CC1C[C@@H](C(=O)Nc2ccc3nccnc3c2)N2C(=O)C=C(c3c(-n4cnnn4)ccc(Cl)c3F)CC12 (mixture of isomers) [ID No. 85, (3S)-7-[3-Chloro-2-fluoro-6-(tetrazol-1-yl)phenyl]-1-methyl-5-oxo-N-quinoxalin-6-yl-2,3,8,8a-tetrahydro-1H-indolizine-3-carboxamide] | 9.9 | 12.2
C[C@@H](O)c1cnc2cc(NC(=O)[C@@H]3CCC4CC(c5c(-n6cnnn6)ccc(Cl)c5F)=CC(=O)N43)ccc2n1 (relative stereo) [ID No. 1, (3S*)-7-(3-chloro-2-fluoro-6-(1H-tetrazol-1-yl)phenyl)-N-(2-((R*)-1-hydroxyethyl)quinoxalin-6-yl)-5-oxo-1,2,3,5,8,8a-hexahydroindolizine-3-carboxamide] | 5 | 9.7
C[C@@H](O)c1cnc2cc(NC(=O)[C@@H]3CCC4CC(c5c(-n6cnnn6)ccc(Cl)c5F)=CC(=O)N43)ccc2n1 (single isomer, unassigned) [ID No. 2] | 6.4 | 11.3
COCCn1cc2cc(NC(=O)C3CCC4CC(c5c(-n6cnnn6)ccc(Cl)c5F)=CC(=O)N43)ccc2n1 (single isomer, unassigned) [ID No. 3, (3S*)-7-(3-chloro-2-fluoro-6-(1H-tetrazol-1-yl)phenyl)-N-(2-(2-methoxyethyl)-2H-indazol-5-yl)-5-oxo-1,2,3,5,8,8a-hexahydroindolizine-3-carboxamide] | 6 | 35.6
COCCNC(=O)c1ccc(NC(=O)[C@@H]2CC[C@@H]3CC(c4c(-n5cnnn5)ccc(Cl)c4F)=CC(=O)N32)cc1F (single isomer, unassigned) [ID No. 5, (3S,8aR*)-7-(3-chloro-2-fluoro-6-(1H-tetrazol-1-yl)phenyl)-N-(3-fluoro-4-((2-methoxyethyl)carbamoyl)phenyl)-5-oxo-1,2,3,5,8,8a-hexahydroindolizine-3-carboxamide] | 15.5 | 128
O=C(Nc1ccc2nn(C(F)F)cc2c1)[C@@H]1CCC2CC(c3c(-n4cnnn4)ccc(Cl)c3F)=CC(=O)N21 (single isomer, unassigned) [ID No. 22, (3S,8aS*)-7-(3-Chloro-2-fluoro-6-(1H-tetrazol-1-yl)phenyl)-N-(2-(difluoromethyl)-2H-indazol-5-yl)-5-oxo-1,2,3,5,8,8a-hexahydroindolizine-3-carboxamide] | 4.2 | 19.3
O=C(Nc1ccc2nn(C(F)F)cc2c1)[C@@H]1CC[C@@H]2CC(c3c(-n4cnnn4)ccc(Cl)c3F)=CC(=O)N21 (single isomer, unassigned) [ID No. 23] | 8.3 | 31.1
O=C(Nc1ccc(-c2nc(=O)o[nH]2)c(F)c1)[C@@H]1CCC2CC(c3c(-n4cnnn4)ccc(Cl)c3F)=CC(=O)N21 (single isomer, unassigned) [ID No. 35, (3S,8aR*)-7-[3-Chloro-2-fluoro-6-(tetrazol-1-yl)phenyl]-N-[3-fluoro-4-(5-oxo-2H-1,2,4-oxadiazol-3-yl)phenyl]-5-oxo-2,3,8,8a-tetrahydro-1H-indolizine-3-carboxamide] | 0.4 | 6.4
O=C(Nc1ccc(-c2nc(=O)o[nH]2)c(F)c1)[C@@H]1CC[C@H]2CC(c3c(-n4cnnn4)ccc(Cl)c3F)=CC(=O)N21 (single isomer, unassigned) [ID No. 36, (3S,8aS*)-7-(3-Chloro-2-fluoro-6-(1H-tetrazol-1-yl)phenyl)-N-(3-fluoro-4-(5-oxo-2,5-dihydro-1,2,4-oxadiazol-3-yl)phenyl)-5-oxo-1,2,3,5,8,8a-_hexahydroindolizine-3-carboxamide] | 0.4 | 8.8
Cc1nc(-c2ccc(NC(=O)[C@@H]3CC[C@@H]4CC(c5c(-n6cnnn6)ccc(Cl)c5F)=CC(=O)N43)cc2)no1 (single isomer, unassigned) [ID No. 50] | 31.8 | 57
O=C(O)c1ccc(NC(=O)[C@@H]2CCC3CC(c4c(-n5cnnn5)ccc(Cl)c4F)=CC(=O)N32)cc1F (single isomer, unassigned) [ID No. 51, (3S,8aS*)-4-[[7-[3-Chloro-2-fluoro-6-(tetrazol-1-yl)phenyl]-5-oxo-2,3,8,8a-tetrahydro-1H-indolizine-3-carbonyl]amino]-2-fluoro-benzoic acid] | 2.5 | 149
O=C(O)c1ccc(NC(=O)[C@@H]2CC[C@@H]3CC(c4c(-n5cnnn5)ccc(Cl)c4F)=CC(=O)N32)cc1F (single isomer, unassigned) [ID No. 52, (3S,8R*)-4-[[7-[3-Chloro-2-fluoro-6-(tetrazol-1-yl)phenyl]-5-oxo-2,3,8,8a-tetrahydro-1H-indolizine-3-carbonyl]amino]-2-fluoro-benzoic acid] | 0.9 | 70.8
